Experimental findings from ChEMBL document CHEMBL1134917, “Substituted 4-anilino-7-phenyl-3-quinolinecarbonitriles as Src kinase inhibitors” (Bioorg Med Chem Lett, 2002) are described below.

A short description of assay [1]: Inhibitory concentration required for the Src dependent cell proliferation using Src-transformed fibroblasts.
Assay [2] addresses Proto-oncogene tyrosine-protein kinase Src (Homo sapiens, UniProt P12931). Put plainly: Inhibitory concentration against Src protein tyrosine kinase.
The target of assay [3] is Cyclin-dependent kinase 4 (Homo sapiens) (UniProt P11802). Put plainly: Inhibition of Cyclin-dependent kinase 4 (CDK4) at ug/mL. The following applies: concentration not given here.
Cyclin-dependent kinase 4 (Homo sapiens), sequence (P11802 whole entry): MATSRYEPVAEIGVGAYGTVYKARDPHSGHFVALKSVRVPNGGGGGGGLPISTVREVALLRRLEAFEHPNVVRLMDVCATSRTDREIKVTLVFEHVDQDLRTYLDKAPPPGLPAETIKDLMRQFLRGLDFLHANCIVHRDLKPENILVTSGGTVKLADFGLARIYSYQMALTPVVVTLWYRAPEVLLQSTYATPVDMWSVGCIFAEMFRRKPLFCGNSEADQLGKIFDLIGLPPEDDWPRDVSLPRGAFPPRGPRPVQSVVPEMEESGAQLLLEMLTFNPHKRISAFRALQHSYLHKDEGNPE
The target of assay [4] is Epidermal growth factor receptor (Homo sapiens, UniProt P00533). Put plainly: Inhibition of Epidermal growth factor receptor.
Epidermal growth factor receptor, sequence (P00533 whole entry): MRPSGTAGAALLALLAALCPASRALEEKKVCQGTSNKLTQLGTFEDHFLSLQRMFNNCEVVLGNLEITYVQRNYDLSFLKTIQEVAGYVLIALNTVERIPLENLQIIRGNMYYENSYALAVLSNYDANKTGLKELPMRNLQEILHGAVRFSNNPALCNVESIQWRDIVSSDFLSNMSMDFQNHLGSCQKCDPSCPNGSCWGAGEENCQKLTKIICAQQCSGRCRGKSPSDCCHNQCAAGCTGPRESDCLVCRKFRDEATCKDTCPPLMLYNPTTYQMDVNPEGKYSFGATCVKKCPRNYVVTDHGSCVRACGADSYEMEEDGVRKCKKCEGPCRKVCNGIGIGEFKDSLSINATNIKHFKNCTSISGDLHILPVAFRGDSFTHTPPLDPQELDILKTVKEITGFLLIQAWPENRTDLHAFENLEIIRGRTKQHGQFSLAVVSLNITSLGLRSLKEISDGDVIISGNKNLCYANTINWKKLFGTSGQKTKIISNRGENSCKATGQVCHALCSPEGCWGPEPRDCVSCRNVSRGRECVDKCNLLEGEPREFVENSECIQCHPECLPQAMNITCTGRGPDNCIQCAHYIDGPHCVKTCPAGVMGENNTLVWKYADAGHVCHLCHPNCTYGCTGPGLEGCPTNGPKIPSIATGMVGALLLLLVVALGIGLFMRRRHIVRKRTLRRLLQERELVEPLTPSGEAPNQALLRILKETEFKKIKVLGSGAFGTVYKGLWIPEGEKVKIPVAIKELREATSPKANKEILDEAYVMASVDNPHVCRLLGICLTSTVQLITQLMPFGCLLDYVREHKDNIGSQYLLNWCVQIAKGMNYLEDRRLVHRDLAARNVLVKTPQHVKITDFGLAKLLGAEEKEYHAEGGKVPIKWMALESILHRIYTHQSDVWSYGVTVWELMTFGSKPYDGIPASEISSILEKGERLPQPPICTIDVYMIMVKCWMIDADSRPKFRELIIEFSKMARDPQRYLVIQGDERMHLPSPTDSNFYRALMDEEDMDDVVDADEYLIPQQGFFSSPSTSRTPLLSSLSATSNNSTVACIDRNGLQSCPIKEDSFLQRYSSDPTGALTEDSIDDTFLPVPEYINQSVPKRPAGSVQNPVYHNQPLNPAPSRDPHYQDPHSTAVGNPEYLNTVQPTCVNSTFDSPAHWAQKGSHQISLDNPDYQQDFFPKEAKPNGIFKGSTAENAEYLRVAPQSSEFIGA
Assay [5] deals with Dual specificity mitogen-activated protein kinase kinase 1 (Homo sapiens, UniProt Q02750). Put plainly: Inhibition of Dual specificity mitogen-activated protein kinase kinase, MEK.
Dual specificity mitogen-activated protein kinase kinase 1, sequence (Q02750 whole entry): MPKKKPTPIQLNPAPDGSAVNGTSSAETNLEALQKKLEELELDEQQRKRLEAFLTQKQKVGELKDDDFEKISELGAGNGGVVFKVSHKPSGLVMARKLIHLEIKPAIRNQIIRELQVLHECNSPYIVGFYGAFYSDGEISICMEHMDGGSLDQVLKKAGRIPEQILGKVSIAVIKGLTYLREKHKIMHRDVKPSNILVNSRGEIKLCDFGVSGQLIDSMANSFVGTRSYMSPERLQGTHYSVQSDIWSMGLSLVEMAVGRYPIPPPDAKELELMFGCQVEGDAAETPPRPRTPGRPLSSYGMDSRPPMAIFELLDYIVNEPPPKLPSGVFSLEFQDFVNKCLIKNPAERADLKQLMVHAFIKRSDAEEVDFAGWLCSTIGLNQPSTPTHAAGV

Some results are limits rather than exact numbers.

Proto-oncogene tyrosine-protein kinase Src, sequence (P12931 2-536 limits assumed): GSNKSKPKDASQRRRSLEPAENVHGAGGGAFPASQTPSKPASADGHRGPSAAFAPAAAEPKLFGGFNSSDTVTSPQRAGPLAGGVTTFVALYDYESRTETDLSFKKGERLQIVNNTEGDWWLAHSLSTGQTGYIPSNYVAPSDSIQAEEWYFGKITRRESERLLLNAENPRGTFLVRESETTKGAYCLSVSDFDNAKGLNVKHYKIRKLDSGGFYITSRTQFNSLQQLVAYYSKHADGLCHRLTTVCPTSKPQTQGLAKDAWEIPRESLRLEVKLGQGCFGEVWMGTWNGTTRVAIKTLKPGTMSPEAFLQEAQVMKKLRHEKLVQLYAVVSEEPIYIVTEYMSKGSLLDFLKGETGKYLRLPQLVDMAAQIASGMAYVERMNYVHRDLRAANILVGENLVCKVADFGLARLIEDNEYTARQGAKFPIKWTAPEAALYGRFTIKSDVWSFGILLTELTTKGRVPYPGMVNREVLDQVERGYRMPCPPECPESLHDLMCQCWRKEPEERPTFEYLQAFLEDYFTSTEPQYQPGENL

As for `COc1cc(Nc2c(C#N)cnc3cc(-c4ccc(CN5CCN(CCO)CC5)cc4)ccc23)c(Cl)cc1Cl`, the IC50 is 0.071 µM in assay [1] and 0.0047 µM in assay [2].

As to `CCN1CCN(Cc2ccc(-c3cc4ncc(C#N)c(Nc5cc(OC)c(Cl)cc5Cl)c4cc3OC)cc2)CC1`, the IC50 in assay [1] was determined as 2 µM; in assay [2], 0.007 µM.

For `COc1cc(Nc2c(C#N)cnc3cc(-c4cccc(CCN5CCOCC5)c4)c(OC)cc23)c(Cl)cc1Cl`, the IC50 in assay [1] came out at 12 µM; in assay [2], 0.074 µM.

Consider `CCN1CCN(CCc2ccc(-c3ccc4c(Nc5cc(OC)c(Cl)cc5Cl)c(C#N)cnc4c3)cc2)CC1`, for which the IC50 in assay [1] was 1.9 µM; in assay [2], 0.0037 µM.

On to `COc1cc(Nc2c(C#N)cnc3cc(-c4cccc(CN5CCOCC5)c4)c(OC)cc23)c(Cl)cc1Cl`, for which the IC50 in assay [1] was determined as 8.1 µM; in assay [2] it was 0.15 µM.

Take `COc1cc(Nc2c(C#N)cnc3cc(OCCCN4CCN(C)CC4)c(OC)cc23)c(Cl)cc1Cl` [BOSUTINIB]: in assay [1], half-maximal inhibition (IC50) was put at 0.1 µM.

For `COc1cc(Nc2c(C#N)cnc3cc(-c4ccccc4CN4CCOCC4)ccc23)c(Cl)cc1Cl`, the results for the IC50 in assay [1] and in assay [2] were more than 10 µM and 4 µM, respectively.

As to `COc1cc(Nc2c(C#N)cnc3cc(-c4ccc(CCN5CCOCC5)cc4)c(OC)cc23)c(Cl)cc1Cl`, the concentration for half-maximal inhibition (IC50) was found to be 1.3 µM in assay [1] and 0.011 µM in assay [2].

Turning to `COc1cc(Nc2c(C#N)cnc3cc(-c4cccc(CN5CCN(C)CC5)c4)ccc23)c(Cl)cc1Cl`, the IC50 in assay [1] stood at 2.8 µM; in assay [2], 0.014 µM.

Take `COc1cc(Nc2c(C#N)cnc3cc(-c4cccc(CCN5CCOCC5)c4)ccc23)c(Cl)cc1Cl`: the figures for the IC50 in assay [1] and in assay [2] were 3.2 µM and 0.029 µM, respectively.

For `COc1cc(Nc2c(C#N)cnc3cc(-c4ccc(CN5CCOCC5)cc4)ccc23)c(Cl)cc1Cl`, the inhibition in assay [3] was found to be 10%. The IC50 in assay [4] is 3 µM; in assay [5] it was 0.28 µM; in assay [1], 0.52 µM; in assay [2], 0.0033 µM.

Consider `CCN1CCN(Cc2ccc(-c3ccc4c(Nc5cc(OC)c(Cl)cc5Cl)c(C#N)cnc4c3)cc2)CC1`, for which the IC50 in assay [1] worked out at 0.96 µM; in assay [2], 0.003 µM.

For the molecule `COc1cc(Nc2c(C#N)cnc3cc(-c4cccc(CN5CCOCC5)c4)ccc23)c(Cl)cc1Cl`, the IC50 in assay [1] is 3.9 µM; in assay [2], 0.028 µM.

In the case of `COc1cc(Nc2c(C#N)cnc3cc(-c4ccc(CCN5CCOCC5)cc4)ccc23)c(Cl)cc1Cl`, the IC50 was determined as 1 µM in assay [1] and 0.014 µM in assay [2].

`COc1cc(Nc2c(C#N)cnc3cc(-c4ccc(CN5CCOCC5)cc4)c(OC)cc23)c(Cl)cc1Cl`: the IC50 came to 1.5 µM in assay [1] and 0.015 µM in assay [2].
